# ChEMBL document CHEMBL6087387, “Carbon Monoxide as a Potential Therapeutic Agent: A Molecular Analysis of Its Safety Profiles” (J Med Chem, 2024)
# Experiments:
# [1] = Plasma concentration in rat at 250 mg/kg, po after 2 hrs; format: ADME, organism-based
# [2] = Plasma concentration in rat at 100 mg/kg, po after 2 hrs; format: ADME, organism-based
# [3] = Plasma concentration in rat at 30 mg/kg, po after 2 hrs
Compound,concentration at 2 h [1],concentration at 2 h [2],other results
O=C(O)c1cn(C2CC2)c2cc(N3CCNCC3)c(F)cc2c1=O [CIPROFLOXACIN],3.8 µM,–,–
COc1cccc2c1C(=O)c1c(O)c3c(c(O)c1C2=O)C[C@@](O)(C(=O)CO)C[C@@H]3O[C@H]1C[C@H](N)[C@H](O)[C@H](C)O1 [DOXORUBICIN],–,1.15 µM,–
O=c1[nH]cc(F)c(=O)[nH]1 [FLUOROURACIL],420 µM,–,–
COc1ccc2cc([C@H](C)C(=O)O)ccc2c1 [NAPROXEN],–,–,concentration at 2 h [3]: > 300 µM
CC(=O)O[C@H]1C(=O)[C@@]2(C)[C@H]([C@H](OC(=O)c3ccccc3)[C@]3(O)C[C@H](OC(=O)[C@H](O)[C@@H](NC(=O)c4ccccc4)c4ccccc4)C(C)=C1C3(C)C)[C@]1(OC(C)=O)CO[C@@H]1C[C@@H]2O [PACLITAXEL],–,3.1 µM,–
